Reference: US7851467B2, “Carbamate compounds as 5-HT4 receptor agonists” (Theravance, Inc., priority 2005, dated 2010)

Biological target: T1, hERG cardiac potassium channel (Homo sapiens, UniProt Q12809)
T1 construct: host or cells: CHO-K1
Experiment: In vitro voltage clamp assay of inhibition of potassium ion current in whole cells expressing hERG
Assay type: cell-based
Details: CHO-K1 cells stably transfected with hERG, pH 7.4, five-minute exposure
Method: Assay 4: In Vitro Voltage Clamp Assay of Inhibition of Potassium Ion Current in Whole Cells Expressing the hERG Cardiac Potassium Channel
CHO-K1 cells stably transfected with hERG cDNA were obtained from Gail Robertson at the University of Wisconsin. Cells were held in cryogenic storage until needed. Cells were expanded and passaged in Dulbecco's Modified Eagles Medium/F12 supplemented with 10% fetal bovine serum and 200 μg/mL geneticin. Cells were seeded onto poly-D-lysine (100 μg/mL) coated glass coverslips, in 35 mm^2 dishes (containing 2 mL medium) at a density that enabled isolated cells to be selected for whole cell voltage-clamp studies. The dishes were maintained in a humidified, 5% CO2 environment at 37° C.
Extracellular solution was prepared at least every 7 days and stored at 4° C. when not in use. […]
The coverslips on which the cells were seeded were transferred to a recording chamber and perfused continuously. […] Peak current amplitudes during the repolarization phase were determined using pClamp software. […]
Peak current amplitudes during the repolarization phase were determined using pCLAMP software. […] The normalized current means and standard errors for each condition were calculated and plotted versus the time course of the experiment. […]

T1 sequence (Q12809 whole entry): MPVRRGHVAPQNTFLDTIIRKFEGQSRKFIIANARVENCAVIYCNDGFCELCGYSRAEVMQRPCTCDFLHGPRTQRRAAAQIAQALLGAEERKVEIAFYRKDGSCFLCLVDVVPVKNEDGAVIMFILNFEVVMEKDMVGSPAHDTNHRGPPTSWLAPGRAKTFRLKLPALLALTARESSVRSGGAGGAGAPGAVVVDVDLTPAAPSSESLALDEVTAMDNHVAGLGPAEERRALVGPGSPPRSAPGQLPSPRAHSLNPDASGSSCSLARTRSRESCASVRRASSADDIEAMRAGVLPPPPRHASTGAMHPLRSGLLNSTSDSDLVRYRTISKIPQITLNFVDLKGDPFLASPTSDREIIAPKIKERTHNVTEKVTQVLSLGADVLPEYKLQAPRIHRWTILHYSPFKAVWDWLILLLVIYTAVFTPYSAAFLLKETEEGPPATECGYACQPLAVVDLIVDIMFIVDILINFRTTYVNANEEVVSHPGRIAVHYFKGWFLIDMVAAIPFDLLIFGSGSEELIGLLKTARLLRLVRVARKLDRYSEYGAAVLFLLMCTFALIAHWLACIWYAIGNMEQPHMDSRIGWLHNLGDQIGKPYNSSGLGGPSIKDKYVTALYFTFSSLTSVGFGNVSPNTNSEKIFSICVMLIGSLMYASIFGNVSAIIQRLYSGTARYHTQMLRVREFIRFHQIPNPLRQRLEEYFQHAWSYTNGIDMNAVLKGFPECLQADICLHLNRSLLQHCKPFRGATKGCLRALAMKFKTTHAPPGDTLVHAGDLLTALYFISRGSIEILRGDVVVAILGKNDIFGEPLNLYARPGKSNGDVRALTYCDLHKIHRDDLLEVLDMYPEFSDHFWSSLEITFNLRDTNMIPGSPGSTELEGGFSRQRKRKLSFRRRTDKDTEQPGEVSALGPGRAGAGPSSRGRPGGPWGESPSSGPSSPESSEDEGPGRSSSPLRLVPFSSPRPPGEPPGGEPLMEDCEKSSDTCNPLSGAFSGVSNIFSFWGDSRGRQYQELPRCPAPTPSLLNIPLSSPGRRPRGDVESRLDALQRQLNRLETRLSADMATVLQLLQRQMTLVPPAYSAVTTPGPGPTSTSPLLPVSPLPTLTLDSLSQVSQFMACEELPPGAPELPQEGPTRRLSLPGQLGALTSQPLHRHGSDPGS

**Q.** `CC(C)n1c(=O)n(C(=O)N[C@H]2C[C@H]3CC[C@@H](C2)N3CCCOC(=O)N2CCN(C(=O)C3CCCO3)CC2)c2ccccc21` (stereo partly drawn) [Example 1, 4-(tetrahydrofuran-2-carbonyl)piperazine-1-carboxylic acid 3-{(1S,3R,5R)-3-[(3-isopropyl-2-oxo-2,3-dihydrobenzoimidazole-1-carbonyl)amino]-8-aza-bicyclo[3.2.1]oct-8-yl}propyl ester] was tested. Which inhibition at 5 min, 3 µM did it give?
**A.** ~9%
